This series is described as follows: Induction of singlet-oxygen generation at 5 x 10^-5 M irradiated at 380 nm by uric acid degradation assay. The format is physicochemical. The settings on record: 0.38 µM.

The record followed here is ChEMBL document CHEMBL3769305, “Glucose-functionalized amino-OPEs as biocompatible photosensitizers in PDT” (Eur J Med Chem, 2016).

With `COc1cc(C#Cc2cc(OC)c(C#Cc3cc(OC)c(C#CCO[C@@H]4O[C@H](CO)[C@@H](O)[C@H](O)[C@H]4O)cc3OC)cc2OC)c(OC)cc1C#CCO[C@@H]1O[C@H](CO)[C@@H](O)[C@H](O)[C@H]1O`, the Activity entry was “Not Active”.
